Values quoted from earlier work as cited in US12390412B2, “Hydroglycolic cosmetic composition with a high active content” (L'OREAL, priority 2020, dated 2025).

Conditions: pH of the composition about 3.0 to about 4.0, more particularly about 3.5

ascorbic acid remains in a protonated, uncharged form: greater than 82%
SMILES: O=C1O[C@H]([C@@H](O)CO)C(O)=C1O [ascorbic acid]
